# In patent US20060258692A1, “Quinazolinone compositions for regulation of gene expression related to pathological processes” (priority 2002, published 2006):
# How the values were obtained:
# IGFBP-1 in HepG2 cells = test: IGFBP-1 gene expression and secretion in HepG2 cells, dose and time response
# [1] = test system: PRL-1 and Apolipoprotein AIV; test: Northern blot validation of Atlas microarray results in liver biopsies; type: in vivo, rat; conditions: TAA vs TAA plus halofuginone
# [2] = test system: IGFBP-1 in HepG2, Huh-7, Hep3B, Det551, ROS and HSC cells; test: IGFBP-1 synthesis in various cell types (Northern and Western blot); type: cell-based, human; rat; conditions: 50 nM halofuginone, serum-free medium, hepatocyte lines vs fibroblasts, osteoblasts
# [3] = test system: IGFBP-1 in rat primary hepatocytes; test: IGFBP-1 synthesis in rat primary hepatocytes (Western blot); type: cell-based
# [4] = test system: rats with TAA-induced liver fibrosis
# [5] = test system: collagen α1(I) gene expression; conditions: skin fibroblasts in culture, incl. from scleroderma or cGVHD patients; cited from earlier work
# [6] = test system: rats insulted with dimethylnitrosamine (DMN) or thioacetamide (TAA); conditions: cited from earlier work
# HepG2 cells = test: HepG2 cell proliferation (cell number); conditions: 24 h, halofuginone at concentration that affect IGFBP-1 synthesis
# IGFBP-3 mRNA = test: Northern blot of liver biopsies with IGFBP-3 probe
# stellate cells (HSC-T6) = test: Stellate cell motility assay (phagokinetic tracks); conditions: conditioned medium of HepG2 treated with 50 nM halofuginone (contains IGFBP-1) added to HSC
# IGFBP-1 gene expression = test: Northern blot and in situ hybridization of liver biopsies with IGFBP-1 probe
# [7] = test system: TAA-induced cirrhotic liver; test: Liver regeneration after 70% partial hepatectomy in TAA-induced cirrhotic rats
molecule,measurement,setting,value
C[C@@H]1C[C@@H]([C@H](O)CC2CC(=O)NC(=O)C2)C(=O)[C@@H](C)C1 [cyclohexamide],effect on halofuginone-dependent increase in IGFBP-1 gene expression,"IGFBP-1 in HepG2 cells; 10 μg/ml cyclohexamide with 50 nM halofuginone, 24 h",annulled
"O=C(CC1NCCC[C@H]1O)Cn1cnc2cc(Br)c(Cl)cc2c1=O (stereo in doubt) [halofuginone, 7-bromo-6-chloro-3-[3-(3-hydroxy-2-piperidinyl)-2-oxopropyl]-4(3H)-quinazolinone]",PRL-1 and Apolipoprotein AIV expression by Northern blotting,[1],confirmed the Atlas microarray findings
same,cell types responding with IGFBP-1 gene expression and synthesis,[2],Only cells of the hepatocyte origin demonstrated increased IGFBP-1 gene expression and synthesis
same,IGFBP-1 synthesis (Western blot),"[3]; halofuginone 1 nM, 24 h",increased the synthesis of IGFBP-1
same,Ishak staging of fibrosis (grade),"[4]; TAA 200 mg/kg twice weekly plus halofuginone 5 ppm in the diet, 4 weeks, TAA alone grade 5-6",1-2
same,αSMA-positive (activated) stellate cells,"[4]; TAA plus halofuginone given orally (5 ppm in diet), 4 weeks, immunohistochemistry",only traces
same,collagen level (Sirius red),"[4]; TAA plus halofuginone, 4 weeks",low levels of collagen
same,level of TIMP-2,"[4]; TAA plus halofuginone, 4 weeks, compared with TAA-treated rats",reduced
same,collagen α1(I) gene expression by remaining stellate cells,"[4]; TAA plus halofuginone, 4 weeks, in situ hybridization",low levels
same,"ECM, collagen, αSMA stellate cells, collagen α1(I) expression, TIMP-2","[4]; rat, in vivo",No changes
same,collagen α1(I) gene expression and collagen production,[5],attenuated
same,fibrotic condition,[6]; given to rats with established fibrosis,almost complete resolution
same,"HSC activation, increase in collagen α1(I) gene expression and collagen deposition",[6]; rats insulted with DMN or TAA,prevent HSC activation and abolish the increase in collagen α1(I) gene expression and collagen deposition
same,cell proliferation (cell number),HepG2 cells,significant reduction in cell proliferation
same,IGFBP-3 mRNA levels,"IGFBP-3 mRNA; after 1 week of treatment, any of the groups",No changes
same,effect on TAA-induced increase in IGFBP-3 level,IGFBP-3 mRNA; after 2 and 4 weeks,partially prevented
same,IGFBP-3 mRNA levels,"IGFBP-3 mRNA; halofuginone alone, any time-points examined",no effect
same,HSC cell motility (track area),stellate cells (HSC-T6),significant inhibition in cell motility
same,effect on TAA-induced down-regulation of IGFBP-1 gene expression (Northern blot),IGFBP-1 gene expression; after 2 and 4 weeks of treatment,prevented the TAA-induced down-regulation
same,effect on TAA-induced reduction in IGFBP-1 gene expression (Northern blot),IGFBP-1 gene expression; after one week of TAA treatment,without any effect
same,level of IGFBP-1 mRNA (Northern blot),IGFBP-1 gene expression; halofuginone alone,slight effect
same,"IGFBP-1 gene expression by in situ hybridization, TAA-induced decrease","IGFBP-1 gene expression; liver sections after 4 weeks, TAA plus halofuginone",prevented
same,IGFBP-1 gene expression (Northern blot),"IGFBP-1 in HepG2 cells; 10 nM halofuginone, 24 h, further increase at higher concentrations, no expression without halofuginone",increased IGFBP-1 gene expression
same,time after halofuginone treatment at which increased IGFBP-1 gene expression was observed,IGFBP-1 in HepG2 cells; 50 nM halofuginone,6 h
same,time after which IGFBP-1 content in the conditioned media increased,IGFBP-1 in HepG2 cells; 50 nM halofuginone,10 to 15 h
same,IGFBP-1 in conditioned medium after halofuginone removal,"IGFBP-1 in HepG2 cells; 50 nM halofuginone for 11 h, washed, fresh medium for additional 13 h, compared with untreated cells",high levels of IGFBP-1
same,incubation time needed for increase in IGFBP-1 secretion,"IGFBP-1 in HepG2 cells; 50 nM halofuginone, medium replaced, IGFBP-1 detected 23 h later",one hour of incubation with halofuginone was sufficient
same,concentration at which an increase in the level of IGFBP-1 in conditioned medium starts (Western blot),"IGFBP-1 in HepG2 cells; HepG2, 24 h",≥ 50 nM
same,PCNA labeling index,"[7]; eight weeks of halofuginone after TAA, 48 hours after 70% PHx, untreated animals 18.8±2.9",31.4±6.4
same,restituted liver mass,"[7]; eight weeks of halofuginone in diet after TAA, 48 hours after 70% PHx, control food group 13.7±4.5, p<0.05",24.2±5.7%
same,liver Ishak staging,[7]; halofuginone treatment of TAA cirrhotic rats,decrease
"insulin: insulin, comparator incubated with rat primary hepatocytes",IGFBP-1 synthesis (Western blot),"[3]; insulin, 24 h (10 nM, 100 nM elsewhere in the source)",reduction in IGFBP-1 synthesis
